These results are taken from PMC12118597 (Science Advances, 2025).

The target in experiment [1] is T1, SARS-CoV-2 NSP3 macrodomain (Mac1) (Severe acute respiratory syndrome coronavirus 2, UniProt P0DTD1). Nature of the experiment: biochemical. In kind it is binding.
Experiment [2] deals with T1, SARS-CoV-2 NSP3 macrodomain (Mac1). It is filed as binding. Conditions: for 2*(1-BDC) (%): occupancy estimate from PanDDA; for Total number of conformations: ligand conformations modeled in the crystal structure.
The mark [3] stands for this setting: HTRF binding curve, SARS-CoV-2 Mac1.
Where [4] appears, read: SARS CoV-2 macrodomain HTRF assay, dose-response.
[5] abbreviates: PanDDA background density correction, 1-BDC.
Where [6] appears, read: crystal soak concentration 10 mM, DMSO background map.
Setting [7] is: crystal soak concentration 10 mM, P43 crystals.
Where [8] appears, read: ligand-bound crystal structure obtained (TRUE).
[9] abbreviates: site occupied in X-ray crystal structure.
Where [10] appears, read: PanDDA background density correction factor.
Where [11] appears, read: TRUE = crystal structure with ligand obtained.
Setting [12] is: crystal soak 10 mM, P43 crystal form.
The mark [13] stands for this setting: crystal soak 10 mM, DMSO background map.
Setting [14] is: refined crystallographic occupancy.
The mark [15] stands for this setting: site of ligand in X-ray crystal structure.
[16] abbreviates: soak concentration 10 mM, DMSO background map.
Setting [17] is: soak concentration 10 mM, P43 crystals.

Several values for one entry are separate records, joined by “and”; a condition that tells them apart may be missing. Identical values can stand only once. Like-named read-outs stand apart in the source and are kept apart here.

For `CC(C)(O)C1N(c2ncnc3[nH]ccc23)CCC1(C)C` (stereo not drawn) [AVI-4126], in experiment [1] (setting [3]), the Hill slope is listed as 1.3. In addition, in experiment [1] (setting [4]), the Hill slope was 1.3. This compound also registered a 1-BDC in experiment [2] (setting [5]) of 0.16. For the same compound, in experiment [2] (setting [6]), the “Hit (PanDDA run, DMSO background map)” value is given as “TRUE” and the “Modeled (PanDDA run, DMSO background map)” value is “TRUE”. Moreover, the “1-BDC (PanDDA run, DMSO background map)” value in experiment [2] (crystal soak concentration 10 mM, DMSO background map, event 1) was 0.17 and 0.16. In experiment [2] (setting [7]), the “Hit (PanDDA run, overall)” value is reported as “TRUE”; the “Modeled (PanDDA run, overall)” value is reported as “TRUE”; the “Modeling comment (PanDDA run, overall)” value is reported as “Duplicate, not modeled”. Also, the “Refined ligand occupancy (%)” value in experiment [2] (crystallographic refinement) worked out at 40%. For the same compound, in experiment [2] (setting [8]), the X-ray crystal structure result is “TRUE”. In addition, in experiment [2], the “2*(1-BDC) (%)” value is reported as 32%. Further, the “Phe132 loop open state” value in experiment [2] (open state of Phe132 loop seen in the ligand-bound structure) is recorded as “TRUE”. Besides, the Binding site entry in experiment [2] (setting [9]) is recorded as “Adenosine”.

In experiment [1] (setting [3]), `O=C(O)C(F)(F)F.OCC1(Nc2ncnc3[nH]ccc23)CCCC1` [AVI-3692] gave a Hill slope of 1.3. In experiment [1] (setting [4]), this compound had a Hill slope of 1.3. In experiment [2], the “Occupancy difference (refined_occupancy - 2*(1-BDC))” value (from here on “Occupancy difference”) was -24, the “Total number of conformations” value stood at 1 and the “2*(1-BDC) (%)” value is 44%. This compound also yielded a 1-BDC in experiment [2] (setting [10]) of 0.22. Besides, the X-ray crystal structure result in experiment [2] (setting [11]) is on record as “TRUE”. Also, in experiment [2] (setting [12]), the “PanDDA run, overall: Hit” value is on record as “TRUE” and the “PanDDA run, overall: Modeled” value is reported as “TRUE”. For the same compound, in experiment [2] (setting [13]), the “PanDDA run, DMSO background map: 1-BDC” value is recorded as 0.22 and the “PanDDA run, DMSO background map: Hit” value was “TRUE”. In experiment [2] (setting [14]), the “Refined ligand occupancy (%)” value is on record as 20%. Further, in experiment [2] (setting [15]), the Binding site entry is “Adenosine”.

For `O=C(O)C(F)(F)F.OCC1(Nc2ncnc3[nH]ccc23)CCC1` [AVI-3670], the Hill slope in experiment [1] (setting [3]) is 1.2. Besides, the Hill slope in experiment [1] (setting [4]) came to 1.2. Besides, in experiment [2], the “Occupancy difference” value came to 0, the “Total number of conformations” value was found to be 2 and the “2*(1-BDC) (%)” value was 36%. In experiment [2] (setting [10]), this compound showed a 1-BDC of 0.18. In addition, in experiment [2] (setting [11]), the X-ray crystal structure entry is “TRUE”. Also, in experiment [2] (setting [12]), the “PanDDA run, overall: Hit” value was “TRUE” and the “PanDDA run, overall: Modeled” value is recorded as “TRUE”. In experiment [2] (setting [13]), the “PanDDA run, DMSO background map: 1-BDC” value amounted to 0.18 and the “PanDDA run, DMSO background map: Hit” value is reported as “TRUE”. The “Refined ligand occupancy (%)” value in experiment [2] (setting [14]) is 36%. The Binding site entry in experiment [2] (setting [15]) was “Adenosine”.

Regarding `OC1(CNc2ncnc3[nH]ccc23)CC2CCC1CC2` (stereo not drawn) [AVI-4320], the Hill slope in experiment [1] (setting [3]) and in experiment [1] (setting [4]) was 1.1 throughout. In addition, the 1-BDC in experiment [2] (setting [5]) came out at 0.14. Moreover, in experiment [2] (crystallographic refinement), the “Refined ligand occupancy (%)” value was found to be 28%. Besides, the X-ray crystal structure entry in experiment [2] (setting [8]) is “TRUE”. Moreover, the “2*(1-BDC) (%)” value in experiment [2] is on record as 28%. Further, the Binding site result in experiment [2] (setting [9]) is “Adenosine”.

With `CC(C)(CO)Nc1ncnc2[nH]ccc12` [AVI-5266], the Hill slope in experiment [1] (setting [3]) and in experiment [1] (setting [4]) was 1.1 each time. The compound also displayed a 1-BDC in experiment [2] (setting [5]) of 0.12. Also, the X-ray crystal structure result in experiment [2] (setting [11]) is “TRUE”. In addition, the “Refined ligand occupancy (%)” value in experiment [2] (crystallographic refinement) is recorded as 40%. Also, the “2*(1-BDC) (%)” value in experiment [2] is listed as 24%. The Binding site result in experiment [2] (setting [15]) is recorded as “Adenosine”.

As for `O[C@H]1CC[C@H]2CCN(c3ncnc4[nH]ccc34)[C@H]21` [AVI-5997], the Hill slope in experiment [1] (setting [3]) and in experiment [1] (setting [4]) was 1.2 in each case. Besides, the 1-BDC in experiment [2] (setting [5]) came out at 0.29. In addition, the “Refined ligand occupancy (%)” value in experiment [2] (crystallographic refinement) amounted to 70%. Also, the X-ray crystal structure entry in experiment [2] (setting [8]) is “TRUE”. In addition, the “2*(1-BDC) (%)” value in experiment [2] is on record as 58%. Also, the Binding site entry in experiment [2] (setting [9]) is “Adenosine”.

Regarding `CC(CNC(=O)c1ccc2c(c1)CCC(=O)N2)C(=O)O` (stereo not drawn) [AVI-328], in experiment [1] (setting [3]), the Hill slope was determined as 1.3. Moreover, the inhibition at 200 µM in experiment [1] (compound at 200 μM, mean of three to four technical replicates, read-out: % competition at 200 μM (preliminary HTRF screen)) worked out at 50%. This compound showed a Hill slope in experiment [1] (dose-response) of 1.3. In experiment [2], the “Occupancy difference” value came to 0, the “Total number of conformations” value was 2 and the “2*(1-BDC) (%)” value is 22%. The compound also gave a 1-BDC in experiment [2] (setting [10]) of 0.11. Further, the X-ray crystal structure result in experiment [2] (TRUE = ligand-bound crystal structure obtained (PDB code given)) is “TRUE”. Moreover, the “Refined ligand occupancy (%)” value in experiment [2] (setting [14]) came to 22%. The Binding site result in experiment [2] (site of Mac1 occupied in the X-ray crystal structure (Adenosine or Distal)) is “Adenosine”. Besides, in experiment [2] (setting [16]), the “PanDDA run, DMSO background map: 1-BDC” value was 0.11 and 0.1; the “PanDDA run, DMSO background map: Hit” value is on record as “TRUE”; the “PanDDA run, DMSO background map: Modeled” value was “TRUE”. Further, in experiment [2] (setting [17]), the “PanDDA run, overall: Hit” value is reported as “TRUE”; the “PanDDA run, overall: Modeled” value was “TRUE”; the “PanDDA run, overall: Modeling comment” value is given as “Duplicate, not modeled”.

Take `OCC1CC=CCN1c1ncnc2[nH]ccc12` (stereo not drawn) [AVI-6002]: the Hill slope in experiment [1] (setting [3]) and in experiment [1] (setting [4]) was 1.3 throughout. In experiment [2] (setting [5]), this compound displayed a 1-BDC of 0.16. For the same compound, in experiment [2] (crystallographic refinement), the “Refined ligand occupancy (%)” value came to 50%. Moreover, the X-ray crystal structure entry in experiment [2] (setting [8]) was “TRUE”. In addition, in experiment [2], the “2*(1-BDC) (%)” value is 32%. In addition, the Binding site entry in experiment [2] (setting [9]) is “Adenosine”.

On to `OC1(CNc2ncnc3[nH]ccc23)COC2CC1C2` (stereo not drawn) [AVI-4313], for which the Hill slope in experiment [1] (setting [3]) and in experiment [1] (setting [4]) was 1.2 in each case. This compound showed a 1-BDC in experiment [2] (setting [5]) of 0.19. Further, in experiment [2] (crystallographic refinement), the “Refined ligand occupancy (%)” value is 38%. The X-ray crystal structure entry in experiment [2] (setting [8]) is recorded as “TRUE”. Besides, the “2*(1-BDC) (%)” value in experiment [2] was 38%. Also, the Binding site entry in experiment [2] (setting [9]) was “Adenosine”.

Consider `CCC(C)(CO)Nc1ncnc2[nH]ccc12` (stereo not drawn) [AVI-3697], for which the Hill slope in experiment [1] (setting [3]) amounted to 1.2. This compound also returned a Hill slope in experiment [1] (setting [4]) of 1.2. In experiment [2], the “Occupancy difference” value is reported as 18, the “Total number of conformations” value was 1 and the “2*(1-BDC) (%)” value was 32%. The compound also came in with a 1-BDC in experiment [2] (setting [10]) of 0.16. Moreover, the X-ray crystal structure entry in experiment [2] (setting [11]) is “TRUE”. Besides, in experiment [2] (setting [12]), the “PanDDA run, overall: Hit” value is on record as “TRUE” and the “PanDDA run, overall: Modeled” value was “TRUE”. For the same compound, in experiment [2] (setting [13]), the “PanDDA run, DMSO background map: 1-BDC” value stood at 0.16 and the “PanDDA run, DMSO background map: Hit” value is on record as “TRUE”. Moreover, in experiment [2] (setting [14]), the “Refined ligand occupancy (%)” value stood at 50%. Also, the Binding site result in experiment [2] (setting [15]) is listed as “Adenosine”.

For the compound `CN(C)CC(CO)Nc1ncnc2[nH]ccc12` (stereo not drawn) [AVI-3671], in experiment [1] (result in words), the “detectable binding at 200 μM in the HTRF assay” value was “neither had detectable binding”. For the same compound, in experiment [2], the “Occupancy difference” value was 0, the “Total number of conformations” value came out at 1 and the “2*(1-BDC) (%)” value is reported as 34%. The 1-BDC in experiment [2] (setting [10]) was 0.17. Moreover, the X-ray crystal structure entry in experiment [2] (setting [11]) was “TRUE”. Besides, in experiment [2] (setting [12]), the “PanDDA run, overall: Hit” value is reported as “TRUE” and the “PanDDA run, overall: Modeled” value is given as “TRUE”. In experiment [2] (setting [13]), the “PanDDA run, DMSO background map: 1-BDC” value was found to be 0.17 and the “PanDDA run, DMSO background map: Hit” value is reported as “TRUE”. In addition, the “Refined ligand occupancy (%)” value in experiment [2] (setting [14]) is recorded as 34%. Moreover, in experiment [2] (setting [15]), the Binding site entry is “Adenosine”.

For `O=S1(=O)CCCC(O)(CNc2ncnc3[nH]ccc23)C1` (stereo not drawn) [AVI-4317], the Hill slope in experiment [1] (setting [3]) and in experiment [1] (setting [4]) was 1.2 in each case. Moreover, the 1-BDC in experiment [2] (setting [5]) is 0.43. Besides, the “Refined ligand occupancy (%)” value in experiment [2] (crystallographic refinement) came out at 100%. Further, the X-ray crystal structure entry in experiment [2] (setting [8]) is listed as “TRUE”. Also, the “2*(1-BDC) (%)” value in experiment [2] is 86%. Besides, the Binding site entry in experiment [2] (setting [9]) was “Adenosine”.
